The NIST ThermoML archive (doi:10.1016/j.tca.2014.08.033)

Conditions: Liquid, DSC

CN1CCC[C@H]1c1cccnc1 [(-)-3-(N-methylpyrrolidino)pyridine]
Conditions | vapor or sublimation pressure [kPa]
447.7 K | 14.96
457.2 K | 19.93
471.1 K | 29.87
490.6 K | 49.83
510.1 K | 79.61
520.4 K | 99.84
566.4 K | 247.84
594.8 K | 397.81
609.3 K | 500.02
617.8 K | 568.97

c1cncc(C2CCCCN2)c1 (configuration not stated) [(.+-.)-anabasine]
Conditions | vapor or sublimation pressure [kPa]
478 K | 14.95
488 K | 19.9
502.9 K | 29.84
523 K | 49.73
543.5 K | 79.59
555.1 K | 99.57
602.5 K | 248.35
631.3 K | 398.33
640.7 K | 468.91
644.3 K | 498.63

CN1C(=O)CC[C@H]1c1cccnc1 [(S)-cotinine]
Conditions | vapor or sublimation pressure [kPa]
537.7 K | 14.95
548.4 K | 19.9
564.2 K | 29.82
585.6 K | 49.74
601.3 K | 69.56
607.4 K | 79.5
619.2 K | 101.32
655.4 K | 197.04
669.7 K | 247.52

CCCCCCCCCCCCCCCC [hexadecane]
Conditions | vapor or sublimation pressure [kPa]
486.1 K | 14.78
529.6 K | 49.76
549.3 K | 79.6
560.5 K | 101.35
560.9 K | 102.04

Cc1ccccc1 [toluene]
Conditions | vapor or sublimation pressure [kPa]
327.6 K | 14.9
360.7 K | 49.6
375.8 K | 79.3
383.5 K | 100.66
384.3 K | 102.73
451 K | 498.3
451.5 K | 499.9
490.4 K | 1009.3

O [water]
Conditions | vapor or sublimation pressure [kPa]
354.7 K | 49.7
366.85 K | 79.6
373.47 K | 100.66
406.69 K | 298.53
425.39 K | 498.99
